# Source: patent US12018252B2, “Methods and compositions for identifying neoantigens for use in treating cancer” (Arizona Board of Regents on Behalf of Arizona State …, priority 2019, dated 2024)
# Legend:
# 4T1 cells = test: BALB/C-4T1 mouse breast tumor model: immunization then tumor challenge; format: in vivo; conditions: 4T1-BALB/c
# Description: BALB/c and C57BL/6 mice were from Charles River Laboratories or Jackson Laboratories. […] Tumor volumes were measured and calculated by (Length^2×Width/2) daily after the size was larger than 1 mm^3. Breeding pairs of BALB-neuT and FVB-neuN (FVB/N-Tg (MMTVneu) 202Mul) mice were obtained from Joseph Lustgarten, Mayo Clinic Arizona. Mice were monitored weekly for the tumor incidence after tumor size reached 1 mm^3. All experiments were performed in accordance with protocols approved by the Institutional Animal Care and Use Committee of Arizona State University.
# The DNA fragments encoding FS peptides were cloned as a C-terminal fusion into the genetic immunization vectors pCMVi-UB (26) and pCMVi-LSrCOMPTT (27, 28) with the Bgl II and Hind III and mixed with 1:1 ratio as the vaccine antigen. Three adjuvants were encoded by genetic immunization vectors. The pCMVi-mGM-CSF vector expresses the adjuvant mouse granulocyte/macrophage colony-stimulating factor (mGM-CSF) under control of the human cytomegalovirus (CMV) promoter (27). […]. Vectors pCMVi-UB, pCMVi-LSrCOMPTT, pCMVi-LTA (also called pCMVi-LS-LTA-R192G) and pCMVi-LTB are available from the PSI:Biology-Materials Repository DNASU (dnasu.org) at Arizona State University. Additional adjuvants were the class A CpG 2216 single-stranded oligodeoxynucleotide obtained from Sigma and alum from Pierce.
# Bullets for biolistic genetic immunization used the gold micronanoplex approach and were prepared as described (30) with the following changes. Two grams of 1-micron gold was used. Prior to addition of N-hydroxysuccinimide and N-(3-dimethylaminopropyl)-N′-ethylcarbodiimide hydrochloride, the gold was resuspended in 20 mL of a 0.1 M solution of 2-(N-morpholino) ethanesulfonic acid (MES), pH 6.0. DNA-gold micronanoplexes were prepared by combining, per bullet, 57 μL of cysteamine-gold solution with precipitated DNA (≤10 μg) that had been resuspended in ≤15 μL of water, and then vortexing for 10 min. To the DNA-cysteamine-gold was added […] of a freshly made solution of PEI-micron gold (167 mg/mL in 0.1 M MES, pH 6, without NaCl). The pelleted micronanoplexes were washed with ethanol prior to resuspension in n-butanol ([…]), followed by bullet formation under nitrogen gas.
# For the three MS FS experiments, all mice (n=10 per group) were genetically immunized in the ear by Gene Gun at 8 weeks of age (2 shots/mouse, 60 ng pooled antigens plus 0.25 μg LTAB and 2.5 μg CpG2216 as the adjuvant for each shot) and boosted twice (two days apart) in three weeks with 1 μg pooled antigens plus the same adjuvants dosage. All mice were boosted again in two weeks with 50 μg KLH conjugated MS FS peptides with 50 μg CpG 2216 and 50 ul alum in total 100 ul PBS. […]
# B16-F10 cells = test: C57BL/B16-F10 mouse melanoma model: genetic immunization then tumor challenge; format: in vivo; conditions: B16F10-C57BL6; gene gun genetic immunization; compared to mock/control antigen CPV 172; n=10 per group
# [1] = gene vaccines three times in two week intervals, 2x10^3 4T1 cells subcutaneous, n=4 per group, vs mock
Sequence,tumor growth (4T1 cells; [1]),"tumor growth (4T1 cells; gene gun plus KLH-peptide boost, 5x10^3 4T1 cells, n=10 per group)",T cell dependence of protection (CD8 or CD4 T-cell depletion) (4T1 cells; immunized mice depleted with anti CD8 or anti CD4 antibody),tumor growth (tumor volume) (B16-F10 cells)
"AVLLMCQLYQPWMCKEYYRLL [ZDHHC17, mouse mis-splicing FS antigen, skips exon 16]",did not,,,
"IPRMQPQASANHCQLLKVMVA [SLAIN2-FS, mouse mis-splicing FS antigen, skips exon 7]",conferred tumor retardation,,,
"TAIIGPNGSGCSGVYCHEEPQGEDSSV [SMC1A 1^4 FS, mouse mis-splicing FS antigen, SMC1A exon 1 joined to exon 4]",,significantly retarded the 4T1 tumor growth,CD8 T cell dependent,significant retardation of tumor growth
